# Tests used:
# Assay type in all cases: cell-based, human
# melanoma cell lines = assay: NCI-60 cell line screen, melanoma cell lines; conditions: 10 μM X 48 hours
# Experimental: (§1) Above findings support the importance of Dxr2 and FolC2 sites, and of Dxr2-017 and FolC2-001 compounds, respectively. The predicted poses of Dxr2-017 bound to the Dxr2 site and FolC2-001 bound to the FolC2 site are shown (Fig 7). The NCI-60 cell line screen evaluates compound growth inhibition and cell toxicity in a highly standardized manner across 60 different cell lines. Dxr2-017 and FolC2-001 were evaluated in this assay (S5 Fig). NCI-60 screens evaluate compounds at 10 μM X 48 hours. […] Of high interest, in the NCI-60 screen Dxr2-017 had relatively high activity against melanoma cell lines, inducing cell death in 5 cell lines ranging from 25–65%, and inhibiting growth in 4 cell lines ranging from 76–96%. Its impact on cell death represents the most striking relative difference in response across cell lines.
# [1] = tested on: MDA-MB-231 breast cancer cells; assay: Eight-day colony formation assay, MDA-MB-231; conditions: for efficacy ratio (cancer cell colonies to bone marrow colonies at 8 days): MDAMB231
# Experimental: We sought to identify compounds that would inhibit the growth of cancer cells, but that also did so selectively. Inhibition of cancer cell growth is a highly sought after attribute of anticancer agents. This was assessed by measuring the ability of a compound to inhibit cell growth in eight-day colony formation assays, examining concentrations ranging from 0.017 to 40 μM. Breast, colon, lung and prostate cancer are four of the most common causes of cancer in the United States, are major causes of cancer cell death, and were examined.[64] Two cell lines for each cancer type were assessed: A549 (adenocarcinoma) and H226 (squamous carcinoma) for lung, MCF-7 (estrogen receptor [ER] positive) and MDA-MB-231 (ER negative) for breast, LNCaP (androgen receptor [AR] positive) and PC3-M (AR negative) for prostate, and HCT116 (wild type p53, mutated KRAS) and HT29 (p53 mutant) for colon.[65]
# In considering effect on cancer cells, for each compound and each cell line tested we calculated the efficacy ratio, i.e., efficacy ratio = (percent of remaining cancer cell colonies)/(percent of remaining bone marrow colonies), at 8 days after treatment with 40 μM compound (S4 Fig). We considered those with an efficacy ratio below 0.5 as active and at least partially selective. The stringency of this is highlighted by considering the effect of 5FU on colon cancer, where it is frequently used clinically in proven curative settings, as well as proven life prolonging settings.[70, 71] […] Even at 5.7 μM, where 5FU is toxic to bone marrow, with hematopoietic colony formation at 38% of control, the efficacy ratio for HT29 cells has only dropped to 0.52. […] It can be seen that compounds segregate to protein sites. Specifically, of 10 compounds meeting this activity criteria (i.e., efficacy ratio <0.5), 3 were directed at the Dxr2 site, 3 at FolC2, 2 at FolC1, 1 at Dxr1 and 1 at TYLT.
# Eight-day colony formation assays of cancer cells were performed as described by us.[87] Briefly, 0.5–1.0 × 10^3 cells were seeded into a 12 well plate, after 24 hours compound added and eight days later colonies (of 3 or more cells) were scored after trypan blue staining. Conditions were in replicates of N = 2. All compounds were stored under desiccated conditions in a sealed container at minus 20°C upon arrival. One day prior to use, they were placed into DMSO, stored at […] as stock solutions, thawed just prior to use, and not reused.
# [2] = tested on: HT29, MDA-MB-231 and H226; assay: NCI-60 cell line screen, other cell lines; conditions: 10 μM X 48 hours
# Experimental: as §1
# M14 cells = assay: Western blot for cleaved caspase 3, M14; conditions: 3 days, up to 10 μM
# Experimental: Fig 8. Dxr2-017 inhibits melanoma cell growth through induction of anoikis. (A) Inhibition of melanoma cell growth. Cells were treated with different concentrations of Dxr2-017 and formation of colonies at eight days depicted. Data are expressed as percent of untreated control and are the mean ± SEM (N=3 replicates) of a single experiment. (B) No effect on cycle progression. M14 and SK-MEL-5 cells were treated for 8 days with 20 and 50 nM Dxr2-017, respectively, and phase of cell cycle determined by flow cytometry. Data are the mean ± SEM (N=3). *denotes P-value ≤0.05. (C) Transition to floating cells. Cells were treated for three days with different Dxr2-017 concentrations. Depicted are representative light photomicrographs at 20X; scale bar is150 μm. Blue and green arrows denote adherent and floating cells, respectively. (D) Cleaved caspase 3 is induced in floating cells. Cells were treated for 3 days, cell lysate from only adherent cells, or from adherent and floating cells combined, was probed by Western blot for cleaved caspase 3. All experiments were repeated at separate times, yielding similar results.
# We then assessed whether Dxr2-017 was inducing apoptosis. […] These findings raised the possibility that Dxr2-017 was inducing anoikis, a process in which programmed cell death occurs upon cell detachment.[72, 73] […]
compound,measurement,setting,value
c1ccc2sc(-c3ccc(CNc4ccc5nnnn5n4)o3)nc2c1 [Dxr2-017],cell death,melanoma cell lines; range over 5 melanoma cell lines,25–65%
same,inhibition at 10 µM,"melanoma cell lines; Homo sapiens, range over 4 melanoma cell lines, read-out: growth inhibition",76 to 96%
same,efficacy ratio (cancer cell colonies to bone marrow colonies at 8 days),[1]; 5.7 μM,0.05
same,efficacy ratio (cancer cell colonies to bone marrow colonies at 8 days),[1]; 40 μM,0.00
same,inhibition at 0.12 µM,"[1]; Homo sapiens, 0.12 μM, MDA-MB-231, mean ± SD, read-out: inhibition of colony formation compared to control",81.7 ± 15.5%
same,activity in NCI-60 screen,[2],"activity against HT29, MDA-MB-231 and H226"
same,"cleaved caspase 3, adherent cells only",M14 cells,did not detect any induction of cleaved caspase 3
same,"cleaved caspase 3, floating and adherent cells combined",M14 cells,clear formation

# Reference: doi:10.1101/2024.05.17.594634, “Protein Structure Inspired Drug Discovery” (bioRxiv, 2024)
